In US7741327B2 (Hoffmann-La Roche Inc., priority 2008, dated 2010):

Each molecule was assayed against T1, Recombinant human liver GK1 (GST-GK) (Homo sapiens, UniProt P35557) (assay: In vitro glucokinase activity (G6PDH-coupled NADH assay)). Conditions: 30° C., 5 mM D-glucose, 10% DMSO.
T1 construct: made in house; host or cells: E. coli
T1 sequence (P35557 1-466 isoform P35557-2): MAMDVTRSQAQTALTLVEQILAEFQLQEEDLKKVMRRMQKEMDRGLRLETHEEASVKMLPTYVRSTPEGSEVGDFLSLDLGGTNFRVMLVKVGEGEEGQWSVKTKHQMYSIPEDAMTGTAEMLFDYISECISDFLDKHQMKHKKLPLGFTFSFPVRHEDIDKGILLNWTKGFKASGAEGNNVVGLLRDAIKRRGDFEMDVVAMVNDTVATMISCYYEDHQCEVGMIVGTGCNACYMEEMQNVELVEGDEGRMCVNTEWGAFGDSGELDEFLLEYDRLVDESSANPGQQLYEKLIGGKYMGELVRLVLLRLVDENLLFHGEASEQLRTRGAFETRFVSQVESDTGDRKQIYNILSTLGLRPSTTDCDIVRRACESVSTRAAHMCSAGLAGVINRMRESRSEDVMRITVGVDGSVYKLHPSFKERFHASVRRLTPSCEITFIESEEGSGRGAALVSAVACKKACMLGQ
Format: biochemical
Procedure, shortened: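 Activation measured as the rate of OD340 rise from G6PDH-coupled NADH production, relative to 10% DMSO control, reported as SC1.5 (concentration for 50% activity increase). Conditions: 30° C, pH 7.1 Hepes, 5 mM glucose, 1 mM ATP, purified recombinant GST-human GK1, compound preincubated 10 min before enzyme addition.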

Row | SC1.5 (concentration of activator that produced a 50% increase in the activity of GK) [µM] | SMILES
1 | 0.19 | COC(=O)c1ccc(NC(=O)C(CC2CCOCC2)N2CC(Oc3c(F)cccc3F)=CC2=O)nc1 (centres unmarked) [Example 40, 6-[2-[4-(2,6-difluoro-phenoxy)-2-oxo-2,5-dihydro-pyrrol-1-yl]-3-(tetrahydro-pyran-4-yl)-propionylamino]-nicotinic acid methyl ester]
2 | 0.047 | COC(=O)c1ccc(NC(=O)[C@H](CC2CCCCC2)N2CC(Oc3c(F)cccc3Cl)=CC2=O)nc1 [Example 69, 6-{(S)-2-[4-(2-Chloro-6-fluoro-phenoxy)-2-oxo-2,5-dihydro-pyrrol-1-yl]-3-cyclohexyl-propionylamino}-nicotinic acid methyl ester]
3 | 0.56 | Cc1ccccc1OC1=CC(=O)N([C@@H](CC(C)C)C(=O)Nc2ccn(CCO)n2)C1 [Example 122, (S)-4-Methyl-2-(2-oxo-4-o-tolyloxy-2,5-dihydro-pyrrol-1-yl)-pentanoic acid [1-(2-hydroxy-ethyl)-1H-pyrazol-3-yl]-amide]
4 | 0.053 | COc1cccc(OC2=CC(=O)N(C(CC3CCOCC3)C(=O)Nc3ccn(C[C@@H](O)CO)n3)C2)c1Cl (stereo partly drawn) [Example 53, 2-[4-(2-Chloro-3-methoxy-phenoxy)-2-oxo-2,5-dihydro-pyrrol-1-yl]-N-[1-((R)-2,3-dihydroxy-propyl)-1H-pyrazol-3-yl]-3-(tetrahydro-pyran-4-yl)-propionamide]
5 | 1.998 | CCOc1ccccc1OC1=CC(=O)N([C@@H](CC(C)C)C(=O)Nc2ccn(CCO)n2)C1.Cl [Example 85, (S)-2-[4-(2-Ethoxy-phenoxy)-2-oxo-2,5-dihydro-pyrrol-1-yl]-4-methyl-pentanoic acid [1-(2-hydroxy-ethyl)-1H-pyrazol-3-yl]-amide Hydrochloride]
6 | 0.028 | CC(C)(O)Cn1ccc(NC(=O)[C@H](CC2CCCCC2)N2CC(Oc3ccccc3)=CC2=O)n1 [Example 213, (S)-3-cyclohexyl-N-[1-(2-hydroxy-2-methyl-propyl)-1H-pyrazol-3-yl]-2-(2-oxo-4-phenoxy-2,5-dihydro-pyrrol-1-yl)-propionamide]
7 | > 30 | O=C(Nc1ccn(C[C@@H](O)CO)n1)C(CC(F)(F)F)N1CC(Oc2ccccc2Cl)=CC1=O (stereo partly drawn) [Example 224, 2-[4-(2-Chloro-phenoxy)-2-oxo-2,5-dihydro-pyrrol-1-yl]-N-[1-((R)-2,3-dihydroxy-propyl)-1H-pyrazol-3-yl]-4,4,4-trifluoro-butyramide]
8 | 0.303 | CSCC[C@@H](C(=O)Nc1ccn(C[C@@H](O)CO)n1)N1CC(Oc2ccccc2Cl)=CC1=O [Example 223, (S)-2-[4-(2-Chloro-phenoxy)-2-oxo-2,5-dihydro-pyrrol-1-yl]-N-[1-((R)-2,3-dihydroxy-propyl)-1H-pyrazol-3-yl]-4-methylsulfanyl-butyramide]
9 | 0.165 | O=C(Nc1ccn(C[C@@H](O)CO)n1)C(CC1CCOCC1)N1CC(Oc2c(F)cccc2F)=CC1=O (stereo partly drawn) [Example 44, 2-[4-(2,6-Difluoro-phenoxy)-2-oxo-2,5-dihydro-pyrrol-1-yl]-N-[1-((R)-2,3-dihydroxy-propyl)-1H-pyrazol-3-yl]-3-(tetrahydro-pyran-4-yl)-propionamide]
10 | 3.15 | COC1=CC(=O)N([C@@H](CC2CCCC2)C(=O)Nc2ccn(CC(C)(C)OC)n2)C1 [Example 5, (S)-3-Cyclopentyl-N-[1-(2-methoxy-2-methyl-propyl)-1H-pyrazol-3-yl]-2-(4-methoxy-2-oxo-2,5-dihydro-pyrrol-1-yl)-propionamide]
11 | 0.72 | Cc1ccccc1OC1=CC(=O)N([C@@H](CC(C)C)C(=O)Nc2ccn(C)n2)C1 [Example 120, (S)-4-Methyl-2-(2-oxo-4-o-tolyloxy-2,5-dihydro-pyrrol-1-yl)-pentanoic acid (1-methyl-1H-pyrazol-3-yl)-amide]
12 | 0.014 | CC(C)(O)Cn1ccc(NC(=O)[C@H](C[C@H]2C[C@H](C)C2)N2CC(Oc3ccccc3Cl)=CC2=O)n1 (single isomer, unassigned) [Example 215]
13 | 6.186 | COC1=CC(=O)N([C@@H](CC2CCCC2)C(=O)Nc2nc(C)ns2)C1 [Example 4]
14 | 1.849 | CCC[C@@H](C(=O)Nc1ccn(C[C@@H](O)CO)n1)N1CC(Oc2c(F)cccc2F)=CC1=O [Example 157, (S)-2-[4-(2,6-Difluoro-phenoxy)-2-oxo-2,5-dihydro-pyrrol-1-yl]-pentanoic acid [1-((R)-2,3-dihydroxy-propyl)-1H-pyrazol-3-yl]-amide]
15 | 1.109 | CC(C)(O)Cn1ccc(NC(=O)C(CC2C3CCC2CC3)N2CC(Oc3ccccc3Cl)=CC2=O)n1 (centres unmarked) [Example 229, 3-bicyclo[2.2.1]hept-7-yl-2-[4-(2-chloro-phenoxy)-2-oxo-2,5-dihydro-pyrrol-1-yl]-N-[1-(2-hydroxy-2-methyl-propyl)-1H-pyrazol-3-yl]-propionamide]
16 | 0.025 | COC(=O)c1ccc(NC(=O)[C@H](CC2CCCCC2)N2CC(Oc3c(F)cccc3F)=CC2=O)nc1 [Example 39, 6-{(S)-3-Cyclohexyl-2-[4-(2,6-difluoro-phenoxy)-2-oxo-2,5-dihydro-pyrrol-1-yl]-propionylamino}-nicotinic acid methyl ester]
17 | 0.027 | CCOc1cccc(OC2=CC(=O)N([C@@H](CC(C)C)C(=O)Nc3ccn(C[C@@H](O)CO)n3)C2)c1F [Example 115, (S)-2-[4-(3-Ethoxy-2-fluoro-phenoxy)-2-oxo-2,5-dihydro-pyrrol-1-yl]-4-methyl-pentanoic acid [1-((R)-2,3-dihydroxy-propyl)-1H-pyrazol-3-yl]-amide]
18 | 4.287 | O=C(Nc1ccn(C[C@@H](O)CO)n1)C(CC(C(F)(F)F)C(F)(F)F)N1CC(Oc2ccccc2Cl)=CC1=O (stereo partly drawn) [Example 219, 2-[4-(2-Chloro-phenoxy)-2-oxo-2,5-dihydro-pyrrol-1-yl]-5,5,5-trifluoro-4-trifluoromethyl-pentanoic acid [1-((R)-2,3-dihydroxy-propyl)-1H-pyrazol-3-yl]-amide]
19 | 0.158 | CC(C)C[C@@H](C(=O)Nc1cnccn1)N1CC(Oc2ccc(C[C@H](O)CO)cc2)=CC1=O [Example 244, (S)-2-{4-[4-((S)-2,3-Dihydroxy-propyl)-phenoxy]-2-oxo-2,5-dihydro-pyrrol-1-yl}-4-methyl-pentanoic acid pyrazin-2-ylamide]
20 | 0.617 | CC1(C)OC[C@@H](Cn2ccc(NC(=O)[C@H](Cc3c(F)cccc3F)N3CC(Oc4ccccc4Cl)=CC3=O)n2)O1 [Example 184, (S)-2-[4-(2-chloro-phenoxy)-2-oxo-2,5-dihydro-pyrrol-1-yl]-N-[1-((R)-2,2-dimethyl-[1,3]dioxolan-4-yl-methyl)-1H-pyrazol-3-yl]-3-(2,6-difluoro-phenyl)-propionamide]
21 | 0.027 | O=C(Nc1ccn(C[C@@H](O)CO)n1)[C@H](CC1CCCCC1)N1CC(Oc2c(F)cccc2F)=CC1=O [Example 38, (S)-3-Cyclohexyl-2-[4-(2,6-difluoro-phenoxy)-2-oxo-2,5-dihydro-pyrrol-1-yl]-N-[1-((R)-2,3-dihydroxy-propyl)-1H-pyrazol-3-yl]-propionamide]
22 | 0.009 | O=C(Nc1ccn(C[C@@H](O)CO)n1)[C@H](CC1CCCCC1)N1CC(Oc2ccccc2Cl)=CC1=O [Example 63, (S)-2-[4-(2-Chloro-phenoxy)-2-oxo-2,5-dihydro-pyrrol-1-yl]-3-cyclohexyl-N-[1-((R)-2,3-dihydroxy-propyl)-1-H-pyrazol-3-yl]-propionamide]
23 | 0.527 | CC(C)C[C@@H](C(=O)Nc1ccn(C[C@@H]2COC(C)(C)O2)n1)N1CC(Oc2ccccc2Cl)=CC1=O [Example 65]
24 | 0.695 | CC(C)C[C@@H](C(=O)Nc1ccn(C[C@@H](O)C[C@@H](O)CC(=O)O)n1)N1CC(Oc2ccccc2Cl)=CC1=O [Example 194, (3R,5S)-6-(3-{(S)-2-[4-(2-chloro-phenoxy)-2-oxo-2,5-dihydro-pyrrol-1-yl]-4-methylpentanoylamino}-pyrazol-1-yl)-3,5-dihydroxy-hexanoic acid]

Row | SMILES | SC1.5 (concentration of activator that produced a 50% increase in the activity of GK) [µM]
25 | Cc1ccccc1OC1=CC(=O)N([C@@H](CC(C)C)C(=O)Nc2ccn(CCO[Si](C)(C)C(C)(C)C)n2)C1 [Example 121, (S)-4-Methyl-2-(2-oxo-4-o-tolyloxy-2,5-dihydro-pyrrol-1-yl)-pentanoic acid {1-[2-(t-butyl-dimethyl-silanyloxy)-ethyl]-1H-pyrazol-3-yl}-amide] | 0.746

Same assay, conditions: at 30 μM test compound

Row | fold act. @ 30 μM [fold] | SMILES
26 | 1.4 | O=C(Nc1ccn(C[C@@H](O)CO)n1)C(CC(F)(F)F)N1CC(Oc2ccccc2Cl)=CC1=O (stereo partly drawn) [Example 224, 2-[4-(2-Chloro-phenoxy)-2-oxo-2,5-dihydro-pyrrol-1-yl]-N-[1-((R)-2,3-dihydroxy-propyl)-1H-pyrazol-3-yl]-4,4,4-trifluoro-butyramide]
